# Test results taken from publication PMC11833175, “Synthesis, characterization, antimicrobial, cytotoxic and carbonic anhydrase inhibition activities of multifunctional pyrazolo-1,2-benzothiazine acetamides” (Beilstein Journal of Organic Chemistry, 2025).
# pKi: −log10 of the molar value. Read-outs that look alike come from different tables or passages of the source.
# What was measured:
# [1] = tested on: Candida albicans (ATCC 90027); experiment: Microbroth single-dose antimicrobial assay, C. albicans; assay type: cell-based; settings: C. albicans ATCC 90027, value (SD); for percent survival at 125 µg/mL: ATCC90027, single dose 125 μg/mL
# Description: (§1) Microbroth single dose antimicrobial assays were performed against different pathogens including susceptible Staphylococcus aureus (ATCC 25923), Escherichia coli (ATCC 8739), and Candida albicans (ATCC 90027). Pathogens were treated with 125 μg/mL of tested compounds in duplicate.
# (§2) The antimicrobial evaluation of the targeted compounds was carried out against five different pathogens including Staphylococcus aureus (susceptible, ATCC 25923; methicillin-resistant, ATCC BAA-41; multidrug-resistant, ATCC BAA-44), Escherichia coli ATCC 8739, and Candida albicans ATCC 90027. Reference antibiotics and final concentrations used as positive controls in these experiments were kanamycin (susceptible S. aureus, 50 μg), vancomycin (methicillin and multidrug-resistant S. aureus, 25 μg), ampicillin (E. coli, 50 μg), and amphotericin B (C. albicans, 25 μg). The final concentration of the tested compounds was 125 μg/mL for microbroth single-dose assays. Dimethyl sulfoxide was used at a final concentration of 0.1% as negative control. […] American type culture collection (ATCC, Manassas, VA, USA) has provided all microbial strains used in above experiments.
# (§3) Antimicrobial Single-dose assay for compounds 7(a-n) against
# (§4) S. aureus E. coli C. albicans
# (§5) Figure S43: Graph showing results of antimicrobial single-dose microbroth assays of compounds 7a–n, dose of tested compounds = 125 μg/mL, control antibiotic s used: kanamycin = 50 μg/mL (Staphylococcus aureus ATCC 25923), ampicillin = 50 μg/mL (Escherichia coli ATCC 8739), and amphotericin B = 25 μg/mL (Candida albicans ATCC 90027). Dimethylsulfoxide ( DMSO) was used as the negative control at 1.25% […]
# (§6) Table S1: Results of single-dose antimicrobial and cytotoxic assays for compounds 7a–n; dosage of tested compounds = 125 μg/mL; antibiotic control dosage (kanamycin = 50 μg/mL (Staphylococcus aureus ATCC 25923), ampicillin = 50 μg/mL (Escherichia coli ATCC 8739), and amphotericin B = 25 μg/mL (Candida albicans ATCC 90027).
# (§7) For cytotoxic assays, dosage of tested compounds = 10 μM; dosage of mensacarcin […]
# (§8) Percent survival / % Cell viability
# (§9) Samples S. aureus E.coli (SD) C. albicans (SD) HCT-116 […]
# [2] = tested on: Escherichia coli (ATCC 8739); experiment: Microbroth single-dose antimicrobial assay, E. coli; assay type: cell-based; settings: E. coli ATCC 8739, value (SD); for percent survival at 125 µg/mL: ATCC8739, single dose 125 μg/mL
# Description: as §1, §2, §3, §4, §5, §6, §7, §8, §9
# [3] = molecular target: human carbonic anhydrase CA I (Homo sapiens, UniProt P00915); experiment: hCA inhibition, stopped-flow CO2 hydration method, CA I
# Description: (§15) In vitro assessment of all targeted pyrazolobenzothiazine scaffolds for human carbonic anhydrase (hCA) inhibition was performed adopting a stopped-flow CO2 hydration method. The enzyme inhibition assays were carried out for four types of human CA isoforms: CA I, CA II, CA IX, and XII. […] Reason for the selection of these CA isoforms was to develop a comparative relationship for inhibition selectivity between CAs (IX, XII) attributed to tumour/cancer and other CAs (I, II). […] Analyses were carried out in-house using recombinant enzymes as described.
# [4] = molecular target: human carbonic anhydrase CA XII (Homo sapiens, UniProt O43570); experiment: hCA inhibition, stopped-flow CO2 hydration method, CA XII; settings: mean from three assays, errors ±5–10%
# Description: as §15
# [5] = molecular target: human carbonic anhydrase CA II (Homo sapiens, UniProt P00918); experiment: hCA inhibition, stopped-flow CO2 hydration method, CA II; settings: mean from three assays, errors ±5–10%
# Description: as §15
# [6] = molecular target: human carbonic anhydrase CA IX (Homo sapiens, UniProt Q16790); experiment: hCA inhibition, stopped-flow CO2 hydration method, CA IX; settings: mean from three assays, errors ±5–10%
# Description: as §15
# [7] = tested on: susceptible S. aureus (ATCC 25923); experiment: Microbroth dilution assay (MIC90), susceptible S. aureus; assay type: cell-based, Staphylococcus aureus; settings: for MIC90: Staphylococcus aureus, ATCC25923, 90% growth inhibition
# Description: (§10) Microbroth dilution assays were performed for the determination of MIC (minimum inhibitory concentration, MIC90) values for compounds 7b and 7h against three different strains of Staphylococcus aureus: susceptible (ATCC 25923), methicillin-resistant (ATCC BAA-41), and multidrug-resistant (ATCC BAA-44).
# as §2
# [8] = tested on: multidrug-resistant S. aureus (ATCC BAA-44); experiment: Microbroth dilution assay (MIC90), multidrug-resistant S. aureus; assay type: cell-based, Staphylococcus aureus; settings: multidrug-resistant S. aureus ATCC BAA-44, 90% growth inhibition; for MIC90: Staphylococcus aureus, ATCCBAA44, read-out: MIC90 MDRSA
# Description: as §10, §2
# [9] = tested on: Staphylococcus aureus (ATCC 25923); experiment: Microbroth single-dose antimicrobial assay, susceptible S. aureus; assay type: cell-based; settings: single dose 125 μg/mL; for percent survival of S. aureus at 125 µg/mL: Staphylococcus aureus, ATCC25923, S. aureus ATCC 25923, value (SD); for antibacterial activity against susceptible S. aureus (in words): duplicate
# Description: as §1, §2, §3, §4, §5, §6, §7, §8, §9
# [10] = Single-dose MTT cell viability assay; assay type: cell-based, human; settings: human, HCT-116 cells (ATCC CCL-247), 48 h, 0.1% DMSO control = 100%, value (SD)
# Description: (§11) Single-dose MTT assays were performed for compounds 7a–n against the human colon cancer mammalian cell line (HCT-116, ATCC CCL-247) for evaluating their inhibition of mammalian cell metabolism. Solutions of the tested compounds were prepared in DMSO and cancer cells were treated with 10 μM doses of compounds using the apoptosis inducing standard mensacarcin (10 μM) as a positive control.
# (§12) Single-dose MTT assays were performed for compounds 7a–n with the human colon cancer mammalian cell line (HCT-116, ATCC CCL-247) for evaluating the compounds’ inhibitory effects on cell viability. Stock solutions of compounds were prepared in DMSO and cancer cells were treated with 10 μM doses of each compound and mensacarcin (10 μM) as a positive control. MTT in 1X PBS was added for a final concentration of 0.5 mg/mL 48 hours post compound addition to each well. Post incubation at 37 °C was carried out for 2 h. After the removal of the growth media, purple formazan metabolic product was dissolved in DMSO. A Biotek Synergy reader (96-well plate) was used to take absorbance of all samples at 550 nm. Cell viability was calculated as the ability of the metabolically active cells to reduce tetrazolium salt MTT [3-(4,5-dimethylthiazolyl-2)-2,5-diphenyltetrazolium bromide]. Control metabolic activity shown by cells treated with 0.1% DMSO was set to 100% cell growth. […]
# as §7, §8, §9
# (§13) HCT-116 (Human Colorn cancer cell line) Single -dose assay for […]
# (§14) Figure S44: Graph showing cell viability of compounds 7a–n against human colon carcinoma cell line (HCT-116, ATCC CCL-247), dose of tested compounds = 10 μM, dose of positive control (mensacarcin) = 10 μM.
# [11] = tested on: human colon cancer cell line HCT-116 (ATCC CCL-247); experiment: Single-dose MTT cell viability assay; assay type: cell-based; settings: 10 μM
# Description: as §11, §12, §7, §8, §9, §13, §14
# [12] = tested on: methicillin-resistant S. aureus (ATCC BAA-41); experiment: Microbroth dilution assay (MIC90), methicillin-resistant S. aureus; assay type: cell-based, Staphylococcus aureus; settings: methicillin-resistant S. aureus ATCC BAA-41, 90% growth inhibition; for MIC90: Staphylococcus aureus, ATCC BAA-41 / MRSA, read-out: MIC90 MRSA
# Description: as §10, §2
# [13] = read-out: Ki for targeted CAs, I, mean from three assays, errors ±5–10%
# [14] = read-out: Ki for targeted CAs, XII
# [15] = read-out: Ki for targeted CAs, II
# [16] = read-out: Ki for targeted CAs, IX
# Sequence of human carbonic anhydrase CA XII (O43570 25-354): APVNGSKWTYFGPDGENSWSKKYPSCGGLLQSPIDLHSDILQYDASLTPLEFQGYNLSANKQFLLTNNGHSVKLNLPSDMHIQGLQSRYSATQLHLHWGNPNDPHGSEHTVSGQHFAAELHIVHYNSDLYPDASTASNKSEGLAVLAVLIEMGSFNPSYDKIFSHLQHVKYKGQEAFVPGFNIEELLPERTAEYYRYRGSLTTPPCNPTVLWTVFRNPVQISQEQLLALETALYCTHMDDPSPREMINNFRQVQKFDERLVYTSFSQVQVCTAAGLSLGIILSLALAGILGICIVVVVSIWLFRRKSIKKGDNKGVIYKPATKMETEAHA
# Sequence of human carbonic anhydrase CA I (P00915 whole entry): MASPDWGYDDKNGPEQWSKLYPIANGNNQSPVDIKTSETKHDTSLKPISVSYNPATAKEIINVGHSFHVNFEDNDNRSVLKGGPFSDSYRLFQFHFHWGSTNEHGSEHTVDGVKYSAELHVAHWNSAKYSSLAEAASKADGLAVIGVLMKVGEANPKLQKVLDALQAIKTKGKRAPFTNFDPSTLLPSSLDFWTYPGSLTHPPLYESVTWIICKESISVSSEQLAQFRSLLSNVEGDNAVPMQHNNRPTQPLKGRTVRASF
smiles,measurement,setting,value
"C[C@@H]1[C@H](O)[C@@H](C)/C=C/C=C/C=C/C=C/C=C/C=C/C=C/[C@H](O[C@@H]2O[C@H](C)[C@@H](O)[C@H](N)[C@@H]2O)C[C@@H]2O[C@](O)(C[C@@H](O)C[C@@H](O)[C@H](O)CC[C@@H](O)C[C@@H](O)CC(=O)O[C@H]1C)C[C@H](O)[C@H]2C(=O)O [Amphotericin B, amphotericin B, reference compound]",percent survival at 25 µg/mL,"[1]; ATCC90027, antibiotic control 25 μg/mL",4.71%
"CC1(C)S[C@@H]2[C@H](NC(=O)[C@H](N)c3ccccc3)C(=O)N2[C@H]1C(=O)O [Ampicillin, ampicillin, reference compound]",percent survival at 50 µg/mL,"[2]; ATCC8739, antibiotic control 50 μg/mL",4.16%
CN1c2c(O)nn(CC(=O)Nc3ccc(Cl)cc3)c2-c2ccccc2S1(=O)=O [Compound 7a],pKi,[3]; [13],< 4.00
same,pKi,[4]; [14],4.04
same,pKi,[5]; [15],4.07
same,pKi,[6]; [16],< 4.00
CN1c2c(O)nn(CC(=O)Nc3cccc(Cl)c3)c2-c2ccccc2S1(=O)=O [Compound 7b],percent survival at 125 µg/mL,[1],87%
same,percent survival at 125 µg/mL,[2],95.3%
same,pKi,[3],< 4.00
same,MIC90,[7],16 µg/mL
same,MIC90,[8],16 µg/mL
same,pKi,"[4]; Ki for targeted CAs, XII",4.11
same,pKi,"[5]; Ki for targeted CAs, II",4.04
same,percent survival of S. aureus at 125 µg/mL,[9],37.2%
same,antibacterial activity against susceptible S. aureus (in words),[9],significant antibacterial activity
same,"viability at 48 h, 10 µM",[10],88.9%
same,effect on HCT-116 cell viability (in words),[11],no significant decrease in mammalian cell viability
same,pKi,"[6]; Ki for targeted CAs, IX",4.14
same,MIC90,[12],16 µg/mL
CN1c2c(O)nn(CC(=O)NCc3ccccc3)c2-c2ccccc2S1(=O)=O [Compound 7f],pKi,[3]; [13],< 4.00
same,pKi,[4]; [14],4.10
same,pKi,[5]; [15],4.04
same,pKi,[6]; [16],< 4.00
CN1c2c(O)nn(CC(=O)Nc3ccc(Br)cc3)c2-c2ccccc2S1(=O)=O [Compound 7h],percent survival at 125 µg/mL,[1],65.1%
same,percent survival at 125 µg/mL,[2],> 100%
same,pKi,[3],< 4.00
same,MIC90 SA,[7]; 90% growth inhibition,8 µg/mL
same,MIC90,[7],8 µg/mL
same,MIC90,[8],8 µg/mL
same,MIC90 MDRSA,[8],8 µg/mL
same,pKi,"[4]; Ki for targeted CAs, XII",4.04
same,pKi,"[5]; Ki for targeted CAs, II",4.02
same,percent survival of S. aureus at 125 µg/mL,[9],16.7%
same,antibacterial activity against susceptible S. aureus (in words),[9],significant antibacterial activity
same,"viability at 48 h, 10 µM",[10],> 100%
same,effect on HCT-116 cell viability (in words),[11],no significant decrease in mammalian cell viability
same,pKi,"[6]; Ki for targeted CAs, IX",4.04
same,MIC90,[12],8 µg/mL
same,MIC90 MRSA,[12],8 µg/mL
CN1c2c(OCC(=O)Nc3ccc([N+](=O)[O-])cc3)nn(CC(=O)Nc3ccc([N+](=O)[O-])cc3)c2-c2ccccc2S1(=O)=O [Compound 7i],pKi,[3]; [13],< 4.00
same,pKi,[4]; [14],< 4.00
same,pKi,[5]; [15],< 4.00
same,pKi,[6]; [16],< 4.00
